Literature values as cited in patent US20230212091A1, “Compositions for Increasing Nitrogen Sources Life Span in Plant Growth Mediums and Methods of Making” (Soilgenic Technologies, LLC, priority 2017, published 2023).

Conditions: at 20° C.

SMILES: N#CN=C(N)N [DCD, dicyandiamide]
- solubility in water: approximately 32 grams/liter
